{"source": "ChEMBL document CHEMBL6087416", "about": "“Discovery of novel fused-heterocycle-bearing diarypyrimidine derivatives as HIV-1 potent NNRTIs targeting tolerant region I for enhanced antiviral activity and resistance profile” (Eur J Med Chem, 2025)", "key": {"[1]": {"system": "Human immunodeficiency virus 1", "assay": "Antiviral activity against NNRTI-resistant HIV-1 harboring RT K103N mutant infected in human MT4 cells assessed as protection against virus-induced cytopathic effect incubated for 5 days by MTT assay", "format": "functional, organism-based", "settings": "Human immunodeficiency virus 1, MT4, 120 h"}, "[2]": {"system": "Human immunodeficiency virus 1", "assay": "Antiviral activity against NNRTI-resistant HIV-1 harboring RT E138K mutant infected in human MT4 cells assessed as protection against virus-induced cytopathic effect incubated for 5 days by MTT assay", "format": "functional, organism-based", "settings": "Human immunodeficiency virus 1, MT4, 120 h"}, "[3]": {"system": "Human immunodeficiency virus 1", "format": "functional, organism-based", "settings": "Human immunodeficiency virus 1, MT4, 120 h"}, "[4]": {"system": "Human immunodeficiency virus 1", "assay": "Antiviral activity against NNRTI-resistant HIV-1 harboring RT L100I mutant infected in human MT4 cells assessed as protection against virus-induced cytopathic effect incubated for 5 days by MTT assay", "format": "functional, organism-based", "settings": "Human immunodeficiency virus 1, MT4, 120 h"}, "[5]": {"system": "Human immunodeficiency virus 1", "format": "functional, organism-based", "settings": "Human immunodeficiency virus 1, MT4, 120 h", "remark": "listed apart in the source"}, "[6]": {"system": "Human immunodeficiency virus 1", "format": "functional, organism-based", "settings": "Human immunodeficiency virus 1, RES056, MT4, 120 h"}, "[7]": {"system": "Human immunodeficiency virus 1", "format": "functional, organism-based", "settings": "Human immunodeficiency virus 1, MT4, 120 h", "remark": "listed apart in the source"}, "[8]": {"assay": "Cytotoxicity against human MT4 cells assessed as reduction in cell viability measured after 5 days by MTT assay", "format": "toxicity, cell-based", "settings": "time 5 day"}, "[9]": {"system": "Human immunodeficiency virus 2", "assay": "Antiviral activity against HIV-2 ROD infected in human MT4 cells assessed as protection against virus-induced cytopathic effect incubated for 5 days by MTT assay", "format": "functional, organism-based", "settings": "Human immunodeficiency virus 2, ROD, MT4, 120 h"}, "[10]": {"target": "Human immunodeficiency virus type 1 reverse transcriptase (Human immunodeficiency virus 1, UniProt Q72547)", "assay": "Inhibition of wild type HIV-1 Reverse transcriptase incubated for 1 hrs by ELISA analysis"}, "[11]": {"assay": "in vitro", "settings": "human, MT4 cells", "description": "Selectivity index, ratio of CC50 for human MT4 cells to EC50 for wild type HIV-1 IIIB infected in human MT4 cells"}, "[12]": {"assay": "in vitro", "settings": "human, MT4 cells", "remark": "listed apart in the source", "description": "Selectivity index, ratio of CC50 for human MT4 cells to EC50 for HIV-1 RES056 harboring RT K103N/Y181C mutant infected in human MT4 cells"}, "[13]": {"assay": "in vitro", "settings": "human, MT4 cells", "remark": "listed apart in the source", "description": "Selectivity index, ratio of CC50 for human MT4 cells to EC50 for HIV-2 ROD infected in human MT4 cells"}, "[14]": {"system": "Human immunodeficiency virus 1", "assay": "microbe, parasite or virus in culture", "settings": "Human immunodeficiency virus 1, IIIB, MT4, 120 h", "description": "Antiviral activity against wild type HIV-1 IIIB infected in human MT4 cells assessed as protection against virus-induced cytopathic effect incubated for 5 days by MTT assay"}, "[15]": {"system": "Human immunodeficiency virus 1", "assay": "Potency index, ratio of Zidovudine EC50 to test compound EC50 for antiviral activity against NNRTI-resistant HIV-1 harboring RT K103N mutant infected in human MT4 cells assessed as protection against virus-induced cytopathic effect incubated for 5 days by MTT assay", "format": "functional", "settings": "time 5 day"}, "[16]": {"system": "Human immunodeficiency virus 1", "assay": "Potency index, ratio of Nevirapine EC50 to test compound EC50 for antiviral activity against NNRTI-resistant HIV-1 harboring RT K103N mutant infected in human MT4 cells assessed as protection against virus-induced cytopathic effect incubated for 5 days by MTT assay", "format": "functional", "settings": "time 5 day"}, "[17]": {"system": "Human immunodeficiency virus 1", "assay": "Potency index, ratio of Efavirenz EC50 to test compound EC50 for antiviral activity against NNRTI-resistant HIV-1 harboring RT K103N mutant infected in human MT4 cells assessed as protection against virus-induced cytopathic effect incubated for 5 days by MTT assay", "format": "functional", "settings": "time 5 day"}, "[18]": {"system": "Human immunodeficiency virus 1", "assay": "Potency index, ratio of doravirine EC50 to test compound EC50 for antiviral activity against NNRTI-resistant HIV-1 harboring RT K103N mutant infected in human MT4 cells assessed as protection against virus-induced cytopathic effect incubated for 5 days by MTT assay", "format": "functional", "settings": "time 5 day"}}, "data": [{"compound": "Cc1cc(/C=C/C#N)cc(C)c1Oc1ccnc(Nc2ccc3scnc3c2)n1", "values": [{"measurement": "EC50", "setting": "[1]", "result": 6, "unit": "nM"}, {"measurement": "EC50", "setting": "[2]", "result": 17, "unit": "nM"}, {"measurement": "EC50", "setting": "[3]", "result": 68, "unit": "nM"}, {"measurement": "EC50", "setting": "[4]", "result": 29, "unit": "nM"}, {"measurement": "EC50", "setting": "[5]", "result": 1370, "unit": "nM"}, {"measurement": "EC50", "setting": "[6]", "result": 950, "unit": "nM"}, {"measurement": "EC50", "setting": "[7]", "result": 1230, "unit": "nM"}, {"measurement": "CC50 at 120 h", "setting": "[8]", "result": 50200, "unit": "nM"}, {"measurement": "EC50", "setting": "[9]", "result": 7040, "unit": "nM"}, {"measurement": "IC50", "setting": "[10]", "result": 43, "unit": "nM"}, {"measurement": "selectivity ratio", "setting": "[11]", "result": 26700}, {"measurement": "selectivity ratio", "setting": "[12]", "result": 506}, {"measurement": "selectivity ratio", "setting": "[13]", "result": 7.13}, {"measurement": "EC50", "setting": "[14]", "result": 2, "unit": "nM"}]}, {"compound": "Cc1cc(/C=C/C#N)cc(C)c1Oc1ccnc(Nc2ccc3nncn3c2)n1", "values": [{"measurement": "EC50", "setting": "[1]", "result": 2, "unit": "nM"}, {"measurement": "EC50", "setting": "[2]", "result": 11, "unit": "nM"}, {"measurement": "EC50", "setting": "[3]", "result": 32, "unit": "nM"}, {"measurement": "EC50", "setting": "[4]", "result": 9, "unit": "nM"}, {"measurement": "EC50", "setting": "[5]", "result": 810, "unit": "nM"}, {"measurement": "EC50", "setting": "[6]", "result": 350, "unit": "nM"}, {"measurement": "EC50", "setting": "[7]", "result": 580, "unit": "nM"}, {"measurement": "CC50 at 120 h", "setting": "[8]", "result": 22000, "unit": "nM"}, {"measurement": "EC50", "setting": "[9]", "result": 6140, "unit": "nM"}, {"measurement": "Ratio EC50", "setting": "[15]", "result": 19}, {"measurement": "Ratio EC50", "setting": "[16]", "result": 2747}, {"measurement": "Ratio EC50", "setting": "[17]", "result": 50}, {"measurement": "Ratio EC50", "setting": "[18]", "result": 5}, {"measurement": "IC50", "setting": "[10]", "result": 25, "unit": "nM"}, {"measurement": "selectivity ratio", "setting": "[11]", "result": 11500}, {"measurement": "selectivity ratio", "setting": "[12]", "result": 182}, {"measurement": "EC50", "setting": "[14]", "result": 2, "unit": "nM"}]}]}
